Holding throughout (assay): NCI tumour cell line growth inhibition, 48 h
The subject of assay [1] is OVCAR-8 ovarian.
Assay [2] relates to UACC-257 melanoma.
Assay [3] has as its system HOP-62 NSCLC.
For assay [4], the system named is DU-145 prostate.
Assay [5] has as its system ACHN renal.
For assay [6], the system named is COLO 205 colon.
Assay [7] has as its system UACC-62 melanoma.
Assay [8] concerns IGROV1 ovarian.
For assay [9], the system named is MALME-3M melanoma.
Assay [10] concerns OVCAR-4 ovarian.

“And” between values parts separate entries of the source, which are not always exact repeats. Equal values may be shown once.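 96-well plates; 48 h exposure; 5 concentrations. Endpoints by linear interpolation between flanking doses. Not reached: highest tested concentration assigned. GI50 = concentration required for 50% inhibition of growth. TGI is the concentration that stops growth completely.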 Bounds are passed on as bounds.

From PubChem BioAssay (NCI) come the findings set out here.

`CN(CC(=O)N(Cc1ccc(C2CCCCC2)cc1)c1ccc(C(=O)O)c(O)c1)S(=O)(=O)c1c(F)c(F)c(F)c(F)c1F`: the GI50 is 7.11 µM in [1]; 3.93 µM in assay [2]; 13.4 µM in assay [3]; 15.6 µM in [4]; 15.3 µM in assay [5]; 12.7 µM in assay [6]. Besides, the GI50 is 3.18 µM in [7], 1.85 µM in assay [8], 2.89 µM in [9] and 14 µM in assay [10]. Further, the TGI in assay [1] worked out at 20.5 µM; in assay [2], 8.53 µM; in [3] it was 30.4 µM; in assay [4], 29 µM; in [5] it was 28.8 µM; in [6], 26.5 µM. In addition, the TGI was found to be 12.1 µM in [7], 4.08 µM in assay [8], 12.3 µM in assay [9] and 27.8 µM in [10].
Take `CN1CCN(c2ccc3nc(-c4ccc5nc(-c6ccc(OCCC(C)(C)C)cc6)[nH]c5c4)[nH]c3c2)CC1`: the GI50 in assay [1] was 4.69 µM; in assay [2], 20.5 µM; in assay [3], 7.1 µM; in assay [4], 1.83 µM; in [5], 9.2 µM; in assay [6], 12.9 µM. In addition, the GI50 in assay [7] is 17.3 µM; in [8], 7.69 µM; in [9], 12.2 µM; in assay [10] it was 10.1 µM. The TGI in [1] stood at 18.6 µM; in [2] it was 38.3 µM; in [3] it was 26.8 µM; in assay [4] it was 3.4 µM; in assay [5] it was 22.8 µM; in assay [6], 30 µM. Also, the TGI in assay [7] was 40.1 µM; in assay [8] it was 31.6 µM; in assay [9], 27.2 µM; in assay [10], 25.5 µM.
`CCCCCCCCCCCC1CCCC(C)N1` (centres undefined): the GI50 in [1] is 13.8 µM; in assay [2], 10.3 µM; in assay [3], 14.8 µM; in assay [4], 12.5 µM; in assay [5], 11.4 µM; in assay [6], 1.56 µM. For the same compound, the GI50 in assay [7] was 8.12 µM; in [8] it was 6.13 µM; in assay [9], 8.03 µM; in assay [10], 7.18 µM. The TGI in [1] is 40.1 µM and 167 µM; in [2], 24.4 µM and 119 µM; in [3] it was 46 µM and 107 µM; in assay [4], 26.1 µM; in [5], 25.5 µM; in [7], 23.6 µM and 102 µM. The TGI is 19.2 µM and 142 µM in [8]; 22.7 µM and 166 µM in assay [9]; 22.3 µM and 136 µM in assay [10].
On to `CC1(C)[C@@H](O[C@@H]2OC[C@@H](O[C@@H]3O[C@H](CO)[C@@H](O)[C@H](O)[C@H]3O[C@@H]3OC[C@@H](O)[C@H](O)[C@H]3O)[C@H](O)[C@H]2O[C@@H]2O[C@H](CO)[C@@H](O)[C@H](O)[C@H]2O)CC[C@]2(C)[C@H]3CC[C@]45OC[C@@]6(CC[C@](C)(C=O)C[C@H]64)[C@H](O)C[C@@]5(C)[C@]3(C)CC[C@@H]12`, for which the GI50 in assay [1] was 1.07 µM; in [2], 0.92 µM; in assay [3], 0.898 µM; in assay [4], 1.09 µM; in [5] it was 0.824 µM; in [6], 1.02 µM. In addition, the GI50 is 0.909 µM in assay [7], 0.872 µM in assay [8], 0.879 µM in [9] and 0.794 µM in assay [10]. Also, the TGI in assay [1] worked out at 2.57 µM; in [2], 1.83 µM; in assay [3] it was 1.79 µM; in assay [4] it was 2.33 µM; in [5] it was 1.54 µM; in [6], 2.01 µM. For the same compound, the TGI in assay [7] came out at 1.81 µM; in assay [8] it was 1.84 µM; in [9], 1.74 µM; in [10], 1.66 µM.
As for `C=C1CC/C=C(\C)C(=O)C[C@@H]2[C@@H]1CC2(C)C`, the TGI in assay [1] is 29.7 µM; in [2], 16 µM; in assay [3] it was 31.1 µM; in [4] it was 16.6 µM; in assay [5], 8.67 µM; in assay [6], 3.87 µM. The TGI was determined as 24.2 µM in assay [7], 12.9 µM in assay [8], 10.5 µM in assay [9] and 6.48 µM in [10].
In the case of `O=C(O)c1cccc(N=Nc2c(S(=O)(=O)O)ccc3c2C(=O)c2ccccc2C3=O)c1O`, the TGI in [1], in assay [2], in [3], in [4], in [5] and in [6] was above 100 µM in each case. Besides, the TGI in assay [7], in assay [8], in [9] and in assay [10] was above 100 µM each time.
For `O=C(/C=C/c1cc([N+](=O)[O-])ccc1Cl)c1ccccc1`, the GI50 was 12.2 µM in [1]; 16.2 µM in assay [2]; 25 µM in [3]; 14.7 µM in [4]; 16.4 µM in [5]; 23 µM in [6]. The GI50 is 13.8 µM in assay [7], 4.6 µM in [8], 19.4 µM in assay [9] and 33.9 µM in [10]. Moreover, the TGI in assay [1] turned out to be 33.5 µM; in [2], 33.6 µM; in assay [3], 63.5 µM; in assay [4] it was 31.2 µM; in assay [5], 31.9 µM; in [6] it was 48.2 µM. Moreover, the TGI in assay [7] was 32.3 µM; in assay [8], 31.7 µM; in assay [9], 44.7 µM; in [10], above 100 µM.
As for `COc1cc2c(cc1Nc1nc(Nc3ccsc3C(N)=O)c3cc[nH]c3n1)N(C(=O)CN(C)C)CCC2(C)C`, the GI50 is 1.64 µM in assay [1]; 0.0753 µM in assay [2]; 1.65 µM in assay [3]; 2.88 µM in [4]; 2.56 µM in [5]; below 0.0025 µM in assay [6]. Besides, the GI50 in assay [7] was 1.77 µM; in assay [8], 3.23 µM; in assay [9], 1.48 µM; in assay [10], 3.02 µM. Further, the TGI was determined as 5.69 µM in assay [1]; 4.34 µM in assay [2]; 5.3 µM in assay [3]; 5.96 µM in [4]; 5.53 µM in assay [5]; 0.887 µM in [6]. For the same compound, the TGI was 5.44 µM in assay [7], 7.31 µM in assay [8], 5.62 µM in assay [9] and 6.59 µM in [10].
